Measured values published in US11191780B2, “Extracellular matrix compositions for the treatment of cancer or immunological diseases” (ADAPTIVE BIOLOGIX, INC., priority 2015, dated 2021).
Where two headings read alike, the source gives them in different places.

Assays:
MDA435 cells = test: MDA435 tumor growth in nude mice, subcutaneous co-injection; format: in vivo, mouse
Experimental: (§1) Tumor growth of B16 cells, C6 cells, or MDA435 cells in the presence or absence of ECM, and with or without cisplatin, were examined in nude mice. Cells, ECM and Cisplatin were injected simultaneously subcutaneously in the lower haunch of a nude mouse. Tumor growth was followed over time using photography, measurements of length and width, then finally by weight. FIGS. 8 and 9 show the growth of tumors from C6 cells in nude mice in the presence (FIG. 9) and absence (FIG. 8) of ECM on day 14 post-injection. FIGS. 10 and 11 show the growth of tumors from C6 cells in nude mice in the presence of ECM with cisplatin (FIG. 10) and cisplatin without ECM (FIG. 11) of ECM on day 14 post-injection.

C6 cells = test: C6 tumor growth in nude mice, subcutaneous co-injection; format: in vivo, mouse; details: vs no treatment control (FIG. 12)
Experimental: as §1

lung cancer = details: cited from earlier work

Molecule | tumor growth over 25 days (MDA435 cells; vs no treatment control (FIG. 14)) | tumor growth (MDA435 cells; vs no treatment control (FIGS. 13A-D)) | tumor growth over 18 days (C6 cells) | ORR (lung cancer; PD-L1+ patients) | ORR (lung cancer; PD-L1 negative patients) | ORR (lung cancer; all the patients with lung cancer)
N.N.[Cl][Pt][Cl] [cisplatin] | reduction in tumor mass to zero | reduced or no tumor growth | no growth |  |  | 
MEDI4736: an engineered fully-human anti-PD-L1 antibody |  |  |  | up to 39% | 5% | 13%
